# From the NIST ThermoML archive (doi:10.1021/je900597n)
# ± gives the expanded uncertainty stated by the source.
# Experiment: xn = mol fraction of the nth substance listed
# Details: 101 kPa, Liquid; for speed of sound: Pulse-echo method
smiles,measurement,setting,value
CCCNCCC [dipropylamine] + COC(C)(C)C,speed of sound,"288.15 K, x2 = 0",1235.1 ± 1.2 m/s
same,speed of sound,"288.15 K, x2 = 0.0455",1226.5 ± 1.2 m/s
same,speed of sound,"288.15 K, x2 = 0.0993",1218.5 ± 1.2 m/s
same,speed of sound,"288.15 K, x2 = 0.1886",1206.8 ± 1.2 m/s
same,speed of sound,"288.15 K, x2 = 0.304",1191.2 ± 1.2 m/s
same,speed of sound,"288.15 K, x2 = 0.3981",1179 ± 1.2 m/s
same,speed of sound,"288.15 K, x2 = 0.4954",1164.9 ± 1.2 m/s
same,speed of sound,"288.15 K, x2 = 0.5839",1152.3 ± 1.2 m/s
same,speed of sound,"288.15 K, x2 = 0.7057",1131.9 ± 1.2 m/s
same,speed of sound,"288.15 K, x2 = 0.7685",1121.7 ± 1.2 m/s
same,speed of sound,"288.15 K, x2 = 0.8876",1103.9 ± 1.2 m/s
same,speed of sound,"288.15 K, x2 = 0.9337",1097 ± 1.2 m/s
same,mass density,"288.15 K, x2 = 0",745.064 ± 0.82 kg/m3
same,mass density,"288.15 K, x2 = 0.0455",744.529 ± 0.82 kg/m3
same,mass density,"288.15 K, x2 = 0.0993",743.741 ± 0.82 kg/m3
same,mass density,"288.15 K, x2 = 0.1886",743.725 ± 0.82 kg/m3
same,mass density,"288.15 K, x2 = 0.304",744.015 ± 0.82 kg/m3
same,mass density,"288.15 K, x2 = 0.3981",744.373 ± 0.82 kg/m3
same,mass density,"288.15 K, x2 = 0.4954",744.92 ± 0.82 kg/m3
same,mass density,"288.15 K, x2 = 0.5839",745.36 ± 0.82 kg/m3
same,mass density,"288.15 K, x2 = 0.7057",745.893 ± 0.82 kg/m3
same,mass density,"288.15 K, x2 = 0.7685",746.206 ± 0.82 kg/m3
same,mass density,"288.15 K, x2 = 0.8876",746.684 ± 0.81 kg/m3
same,mass density,"288.15 K, x2 = 0.9337",746.947 ± 0.81 kg/m3
same,speed of sound,"293.15 K, x2 = 0",1213.4 ± 1.2 m/s
same,speed of sound,"293.15 K, x2 = 0.0455",1204.6 ± 1.2 m/s
same,speed of sound,"293.15 K, x2 = 0.0993",1196.6 ± 1.2 m/s
same,speed of sound,"293.15 K, x2 = 0.1886",1184.9 ± 1.2 m/s
same,speed of sound,"293.15 K, x2 = 0.304",1169.1 ± 1.2 m/s
same,speed of sound,"293.15 K, x2 = 0.3981",1156.8 ± 1.2 m/s
same,speed of sound,"293.15 K, x2 = 0.4954",1142.8 ± 1.2 m/s
same,speed of sound,"293.15 K, x2 = 0.5839",1130 ± 1.2 m/s
same,speed of sound,"293.15 K, x2 = 0.7057",1109.4 ± 1.2 m/s
same,speed of sound,"293.15 K, x2 = 0.7685",1099.1 ± 1.2 m/s
same,speed of sound,"293.15 K, x2 = 0.8876",1080.8 ± 1.1 m/s
same,speed of sound,"293.15 K, x2 = 0.9337",1073.6 ± 1.1 m/s
same,mass density,"293.15 K, x2 = 0",740.501 ± 0.82 kg/m3
same,mass density,"293.15 K, x2 = 0.0455",739.961 ± 0.83 kg/m3
same,mass density,"293.15 K, x2 = 0.0993",739.141 ± 0.83 kg/m3
same,mass density,"293.15 K, x2 = 0.1886",739.088 ± 0.83 kg/m3
same,mass density,"293.15 K, x2 = 0.304",739.319 ± 0.83 kg/m3
same,mass density,"293.15 K, x2 = 0.3981",739.628 ± 0.83 kg/m3
same,mass density,"293.15 K, x2 = 0.4954",740.107 ± 0.83 kg/m3
same,mass density,"293.15 K, x2 = 0.5839",740.49 ± 0.82 kg/m3
same,mass density,"293.15 K, x2 = 0.7057",740.912 ± 0.82 kg/m3
same,mass density,"293.15 K, x2 = 0.7685",741.193 ± 0.82 kg/m3
same,mass density,"293.15 K, x2 = 0.8876",741.588 ± 0.82 kg/m3
same,mass density,"293.15 K, x2 = 0.9337",741.806 ± 0.82 kg/m3
same,speed of sound,"298.15 K, x2 = 0",1191.9 ± 1.2 m/s
same,speed of sound,"298.15 K, x2 = 0.0455",1182.9 ± 1.2 m/s
same,speed of sound,"298.15 K, x2 = 0.0993",1174.9 ± 1.2 m/s
same,speed of sound,"298.15 K, x2 = 0.1886",1163 ± 1.2 m/s
same,speed of sound,"298.15 K, x2 = 0.304",1147.2 ± 1.2 m/s
same,speed of sound,"298.15 K, x2 = 0.3981",1134.8 ± 1.2 m/s
same,speed of sound,"298.15 K, x2 = 0.4954",1120.8 ± 1.2 m/s
same,speed of sound,"298.15 K, x2 = 0.5839",1107.8 ± 1.2 m/s
same,speed of sound,"298.15 K, x2 = 0.7057",1087 ± 1.1 m/s
same,speed of sound,"298.15 K, x2 = 0.7685",1076.6 ± 1.1 m/s
same,speed of sound,"298.15 K, x2 = 0.8876",1057.9 ± 1.1 m/s
same,speed of sound,"298.15 K, x2 = 0.9337",1050.7 ± 1.1 m/s
same,mass density,"298.15 K, x2 = 0",735.924 ± 0.83 kg/m3
same,mass density,"298.15 K, x2 = 0.0455",735.381 ± 0.83 kg/m3
same,mass density,"298.15 K, x2 = 0.0993",734.529 ± 0.83 kg/m3
same,mass density,"298.15 K, x2 = 0.1886",734.436 ± 0.83 kg/m3
same,mass density,"298.15 K, x2 = 0.304",734.607 ± 0.83 kg/m3
same,mass density,"298.15 K, x2 = 0.3981",734.96 ± 0.83 kg/m3
same,mass density,"298.15 K, x2 = 0.4954",735.272 ± 0.83 kg/m3
same,mass density,"298.15 K, x2 = 0.5839",735.593 ± 0.83 kg/m3
same,mass density,"298.15 K, x2 = 0.7057",735.904 ± 0.83 kg/m3
same,mass density,"298.15 K, x2 = 0.7685",736.153 ± 0.83 kg/m3
same,mass density,"298.15 K, x2 = 0.8876",736.455 ± 0.83 kg/m3
same,mass density,"298.15 K, x2 = 0.9337",736.641 ± 0.83 kg/m3
same,speed of sound,"303.15 K, x2 = 0",1170.4 ± 1.2 m/s
same,speed of sound,"303.15 K, x2 = 0.0455",1161.5 ± 1.2 m/s
same,speed of sound,"303.15 K, x2 = 0.0993",1153.4 ± 1.2 m/s
same,speed of sound,"303.15 K, x2 = 0.1886",1141.4 ± 1.2 m/s
same,speed of sound,"303.15 K, x2 = 0.304",1125.5 ± 1.2 m/s
same,speed of sound,"303.15 K, x2 = 0.3981",1112.9 ± 1.2 m/s
same,speed of sound,"303.15 K, x2 = 0.4954",1099.1 ± 1.2 m/s
same,speed of sound,"303.15 K, x2 = 0.5839",1085.9 ± 1.1 m/s
same,speed of sound,"303.15 K, x2 = 0.7057",1064.9 ± 1.1 m/s
same,speed of sound,"303.15 K, x2 = 0.7685",1054.4 ± 1.1 m/s
same,speed of sound,"303.15 K, x2 = 0.8876",1035.3 ± 1.1 m/s
same,speed of sound,"303.15 K, x2 = 0.9337",1028 ± 1.1 m/s
same,mass density,"303.15 K, x2 = 0",731.333 ± 0.84 kg/m3
same,mass density,"303.15 K, x2 = 0.0455",730.779 ± 0.84 kg/m3
same,mass density,"303.15 K, x2 = 0.0993",729.903 ± 0.84 kg/m3
same,mass density,"303.15 K, x2 = 0.1886",729.765 ± 0.84 kg/m3
same,mass density,"303.15 K, x2 = 0.304",729.854 ± 0.84 kg/m3
same,mass density,"303.15 K, x2 = 0.3981",730.165 ± 0.84 kg/m3
same,mass density,"303.15 K, x2 = 0.4954",730.41 ± 0.84 kg/m3
same,mass density,"303.15 K, x2 = 0.5839",730.664 ± 0.84 kg/m3
same,mass density,"303.15 K, x2 = 0.7057",730.891 ± 0.84 kg/m3
same,mass density,"303.15 K, x2 = 0.7685",731.058 ± 0.84 kg/m3
same,mass density,"303.15 K, x2 = 0.8876",731.289 ± 0.84 kg/m3
same,mass density,"303.15 K, x2 = 0.9337",731.421 ± 0.84 kg/m3
same,speed of sound,"308.15 K, x2 = 0",1149 ± 1.2 m/s
same,speed of sound,"308.15 K, x2 = 0.0455",1140.1 ± 1.2 m/s
same,speed of sound,"308.15 K, x2 = 0.0993",1132 ± 1.2 m/s
same,speed of sound,"308.15 K, x2 = 0.1886",1120 ± 1.2 m/s
same,speed of sound,"308.15 K, x2 = 0.304",1103.9 ± 1.2 m/s
same,speed of sound,"308.15 K, x2 = 0.3981",1091.2 ± 1.2 m/s
same,speed of sound,"308.15 K, x2 = 0.4954",1076.8 ± 1.1 m/s
same,speed of sound,"308.15 K, x2 = 0.5839",1063.8 ± 1.1 m/s
same,speed of sound,"308.15 K, x2 = 0.7057",1042.5 ± 1.1 m/s
same,speed of sound,"308.15 K, x2 = 0.7685",1032 ± 1.1 m/s
same,speed of sound,"308.15 K, x2 = 0.8876",1012.9 ± 1.1 m/s
same,speed of sound,"308.15 K, x2 = 0.9337",1005.4 ± 1.1 m/s
same,mass density,"308.15 K, x2 = 0",726.732 ± 0.85 kg/m3
same,mass density,"308.15 K, x2 = 0.0455",726.199 ± 0.85 kg/m3
same,mass density,"308.15 K, x2 = 0.0993",725.268 ± 0.85 kg/m3
same,mass density,"308.15 K, x2 = 0.1886",725.081 ± 0.85 kg/m3
same,mass density,"308.15 K, x2 = 0.304",725.082 ± 0.85 kg/m3
same,mass density,"308.15 K, x2 = 0.3981",725.325 ± 0.85 kg/m3
same,mass density,"308.15 K, x2 = 0.4954",725.531 ± 0.85 kg/m3
same,mass density,"308.15 K, x2 = 0.5839",725.713 ± 0.85 kg/m3
same,mass density,"308.15 K, x2 = 0.7057",725.831 ± 0.85 kg/m3
same,mass density,"308.15 K, x2 = 0.7685",725.925 ± 0.85 kg/m3
same,mass density,"308.15 K, x2 = 0.8876",726.066 ± 0.85 kg/m3
same,mass density,"308.15 K, x2 = 0.9337",726.159 ± 0.85 kg/m3
